Like-named read-outs stand apart in the source and are kept apart here.
Key:
UGT1A10 [1] = molecular target: T1, UGT1A10 (Homo sapiens, UniProt Q9HAW8); experiment: IC50 assays, inhibition of UGT1A10 glucuronidation (Example 1); type: biochemical; design: His; made in house; host or cells: baculovirus-infected Sf9 insect cells
T1 sequence (Q9HAW8 26-530): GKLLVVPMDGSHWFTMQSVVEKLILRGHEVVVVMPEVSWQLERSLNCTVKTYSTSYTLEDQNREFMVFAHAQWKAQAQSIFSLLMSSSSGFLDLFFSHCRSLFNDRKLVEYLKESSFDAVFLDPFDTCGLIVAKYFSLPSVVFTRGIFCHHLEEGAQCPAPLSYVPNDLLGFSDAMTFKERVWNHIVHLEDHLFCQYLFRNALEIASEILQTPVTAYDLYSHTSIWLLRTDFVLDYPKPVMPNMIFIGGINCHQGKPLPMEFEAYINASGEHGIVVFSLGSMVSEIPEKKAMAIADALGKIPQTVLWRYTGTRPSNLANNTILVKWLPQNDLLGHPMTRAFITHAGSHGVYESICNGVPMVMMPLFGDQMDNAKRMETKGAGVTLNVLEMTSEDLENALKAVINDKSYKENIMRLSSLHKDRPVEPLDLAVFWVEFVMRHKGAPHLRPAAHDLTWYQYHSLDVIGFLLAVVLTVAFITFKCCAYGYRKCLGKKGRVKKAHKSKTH
Excerpt: Synthesis of inhibitors was described previously (2).

UGT2B7 [2] = molecular target: T2, UGT2B7 (Homo sapiens, UniProt P16662); experiment: Ki assays / kinetics and inhibition type, UGT2B7 (Example 1); settings: UGT2B7
T2 sequence (P16662 24-529): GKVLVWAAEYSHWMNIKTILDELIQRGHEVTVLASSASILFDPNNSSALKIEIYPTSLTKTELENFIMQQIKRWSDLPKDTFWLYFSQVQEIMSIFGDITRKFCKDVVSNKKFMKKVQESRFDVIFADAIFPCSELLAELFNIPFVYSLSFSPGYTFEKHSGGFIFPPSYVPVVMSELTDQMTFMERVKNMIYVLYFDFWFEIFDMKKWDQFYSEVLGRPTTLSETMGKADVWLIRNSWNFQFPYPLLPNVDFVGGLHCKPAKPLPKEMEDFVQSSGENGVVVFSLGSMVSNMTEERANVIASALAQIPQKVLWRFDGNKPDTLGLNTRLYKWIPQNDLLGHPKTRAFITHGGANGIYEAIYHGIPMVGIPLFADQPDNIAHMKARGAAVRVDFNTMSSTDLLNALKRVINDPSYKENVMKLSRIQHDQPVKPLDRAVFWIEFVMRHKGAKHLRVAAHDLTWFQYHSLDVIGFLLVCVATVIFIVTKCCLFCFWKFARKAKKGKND
Description: (§1) Recombinant UGT Isoform Incubations—Recombinant human UGT2B7 was produced in HEK239 cells as previously described (6). UGT1A10 was produced as a His-tagged protein in baculovirus-infected Sf9 insect cells as previously described (7, 8). […] For inhibition assays, recombinant UGT membrane protein was incubated in reaction buffer with substrate, inhibitor, and co-substrate as previously described (6, 9).
(§2) Ki assays—UGT2B7 or 1A10 were incubated with a range of at least four different concentrations of inhibitor using varying concentrations of substrate (Ki(substrate)) with a fixed saturating concentration of cosubstrate or with varying concentrations of co-substrate (Ki(UDP-GlcUA)) and a fixed saturating concentration of substrate (FIG. 4).
(§3) The results of these experiments were analyzed and apparent kinetic and inhibition parameters were determined using Prism 4 software (GraphPad, San Diego, Calif.) and DynaFit (BioKin, Watertown, Mass.). TLC and HPLC Analysis—For inhibition assays using all substrates other than 7-OH-warfarin, aliquots (60 μl) of each incubation were analyzed using thin layer chromatography (TLC) as previously described (3). For inhibition assays using 7-OH-warfarin as a substrate, samples were analyzed using HPLC as described previously (10). Primary standards for the 7-OH-warfarin glucuronide were not available; therefore, product concentrations were estimated using the external standard response for the 7-OH-warfarin substrate.

UGT1A10 [3] = molecular target: T1, UGT1A10; type: biochemical; design: His; made in house; host or cells: baculovirus-infected Sf9 insect cells
UGT2B7 [4] = molecular target: T2, UGT2B7; experiment: IC50 assays, inhibition of UGT2B7 glucuronidation (Example 1)
Description: Recombinant UGT Isoform Incubations—Recombinant human UGT2B7 was produced in HEK239 cells as previously described (6). […] For inhibition assays, recombinant UGT membrane protein was incubated in reaction buffer with substrate, inhibitor, and co-substrate as previously described (6, 9).
IC50 assays—UGT2B7 or 1A10 were incubated with fixed concentrations of each substrate and co-substrate and increasing concentrations of inhibitor.
as §3

UGT1A10 [5] = molecular target: T1, UGT1A10; experiment: Ki assays / kinetics and inhibition type, UGT1A10 (Example 2); settings: UGT1A10, Example 2; for Inhibition Type (UDP-GlcUA): UDP-GlcUA varied
Description: Recombinant UGT Isoform Incubations—Recombinant human UGT1A10 and it mutants were produced in baculovirus-infected insect cells as previously described (6, 7). Synthesis of inhibitors was described previously (2). For inhibition assays, UGT recombinant membrane protein (5 μg) was incubated in reaction buffer ([…] Tris-HCl (pH 7.4)/5 mM MgCl2/5 mM saccharolactone) and 2% DMSO with substrate, inhibitor and co-substrate, UDP-GlcUA, in a total volume of 30 μl. Substrates were added in DMSO, and controls were run with each assay. No additional detergents or other activators were used in the incubations. Reactions were started by the addition of co-substrate and incubated at 37° C. (90 min for 8-hydroxywarfarin; 30 min for 4-MU; 30 min for E2). […] Reactions were stopped by addition of 40 μl of ethanol, and all incubations were performed in duplicate.
TLC Analysis—For inhibition assays using 4-MU, E2, and 8-OH warfarin as substrates, aliquots (60 μl) of each sample were analyzed using thin layer chromatography (TLC) as described previously (3).
Each sample was centrifuged at 14,000 rpm for 8 min to spin down the protein, and 60 μl of the supernatant was analyzed by HPLC as described previously (8).

UGT1A10 [6] = molecular target: T1, UGT1A10; experiment: Ki assays / kinetics and inhibition type, UGT1A10 (Example 1); settings: for Inhibition Type (UDP-GlcUA): UDP-GlcUA varied
Description: as §1, §2, §3

IC50 (UGT1A10 [1]; 4-MU, read-out: IC50 (Substrate)): 8 ± 1 µM
IC50 (UGT1A10 [1]; 7-OH warfarin, read-out: IC50 (Substrate)): 11 ± 2 µM
IC50 (UGT1A10 [1]; 8-OH warfarin, read-out: IC50 (Substrate)): 35 ± 4 µM
IC50 (UGT1A10 [1]; E2, estimation, some activation at low concentrations, read-out: IC50 (Substrate)): ~200 µM
IC50 (UGT1A10 [1]; co-substrate ~2 x Km, 4-MU in excess, read-out: IC50 (UDP-GlcUA)): 15 ± 2 µM
IC50 (UGT1A10 [1]; co-substrate ~2 x Km, 7-OH warfarin in excess, read-out: IC50 (UDP-GlcUA)): 4.9 ± 0.2 µM
IC50 (UGT1A10 [1]; co-substrate ~2 x Km, 8-OH warfarin in excess, read-out: IC50 (UDP-GlcUA)): 14 ± 1 µM
IC50 (UGT1A10 [1]; co-substrate ~2 x Km, E2 in excess, read-out: IC50 (UDP-GlcUA)): 39 ± 11 µM
Inhibition Type (UDP-GlcUA) (UGT2B7 [2]; UDP-GlcUA varied, androsterone): Mixed
Inhibition Type (UDP-GlcUA) (UGT2B7 [2]; UDP-GlcUA varied, linoleic acid): Competitive
Inhibition Type (UDP-GlcUA) (UGT2B7 [2]; UDP-GlcUA varied, p-nitrophenol): Mixed
Inhibition Type (Substrate) (UGT2B7 [2]; androsterone varied): Mixed
Inhibition Type (Substrate) (UGT2B7 [2]; linoleic acid varied): Competitive
Inhibition Type (Substrate) (UGT2B7 [2]; p-nitrophenol varied): Competitive
Ki (UGT2B7 [2]; read-out: Kiapp (Substrate), linoleic acid varied): 4.2 µM
Ki (UGT2B7 [2]; read-out: Kiapp (Substrate), p-nitrophenol varied): 7.6 µM
Ki (UGT2B7 [2]; read-out: Kiapp (UDP-GlcUA), UDP-GlcUA varied, linoleic acid): 2.5 µM
Ki (UGT2B7 [2]; read-out: Kiapp (UDP-GlcUA), UDP-GlcUA varied, p-nitrophenol): 2.1 µM
Ki (UGT2B7 [2]; read-out: Ki′app (UDP-GlcUA), UDP-GlcUA varied, p-nitrophenol): 85 µM
extent of inhibition of UGT1A10 activity toward 7-OH warfarin (UGT1A10 [3]): did not fully inhibition
IC50 (UGT2B7 [4]; read-out: IC50 (Substrate), linoleic acid ~2 x Km, co-substrate in >5 fold excess): 14 µM
IC50 (UGT2B7 [4]; read-out: IC50 (Substrate), p-nitrophenol (pNP) ~2 x Km, co-substrate in >5 fold excess): 75 ± 10 µM
Inhibition Type (Substrate) (UGT1A10 [5]; 4-MU varied): Competitive
Inhibition Type (Substrate) (UGT1A10 [5]; 7-OH warfarin varied): Competitive
Inhibition Type (Substrate) (UGT1A10 [5]; 8-OH warfarin varied): Competitive
Inhibition Type (UDP-GlcUA) (UGT1A10 [5]; 4-MU): Competitive
Inhibition Type (UDP-GlcUA) (UGT1A10 [5]; 7-OH warfarin 3 mM): Mixed
Inhibition Type (UDP-GlcUA) (UGT1A10 [5]; 8-OH warfarin): Competitive
Inhibition Type (UDP-GlcUA) (UGT1A10 [5]; E2 1 mM): Mixed
Inhibition Type (Substrate) (UGT1A10 [6]; 4-MU varied): noncompetitive and Non-
Inhibition Type (Substrate) (UGT1A10 [6]; 7-OH warfarin varied): Competitive
Inhibition Type (Substrate) (UGT1A10 [6]; 8-OH warfarin varied): Mixed
Inhibition Type (Substrate) (UGT1A10 [6]; E2 varied): Mixed
Inhibition Type (UDP-GlcUA) (UGT1A10 [6]; 4-MU): Competitive
Inhibition Type (UDP-GlcUA) (UGT1A10 [6]; 7-OH warfarin): Competitive
Inhibition Type (UDP-GlcUA) (UGT1A10 [6]; 8-OH warfarin): Competitive
Inhibition Type (UDP-GlcUA) (UGT1A10 [6]; E2): Mixed
Ki (UGT1A10 [6]; read-out: Kiapp (Substrate), 4-MU varied): 96 µM
Ki (UGT1A10 [6]; read-out: Kiapp (Substrate), 7-OH warfarin varied): 8.5 µM
Ki (UGT1A10 [6]; read-out: Kiapp (Substrate), 8-OH warfarin varied): 27 µM
Ki (UGT1A10 [6]; read-out: Kiapp (Substrate), E2 varied): 200 µM
Ki (UGT1A10 [6]; read-out: Kiapp (UDP-GlcUA), UDP-GlcUA varied, 4-MU): 5.7 µM
Ki (UGT1A10 [6]; read-out: Kiapp (UDP-GlcUA), UDP-GlcUA varied, 7-OH warfarin): 4.1 µM
Ki (UGT1A10 [6]; read-out: Kiapp (UDP-GlcUA), UDP-GlcUA varied, 8-OH warfarin): 26 µM
Ki (UGT1A10 [6]; read-out: Kiapp (UDP-GlcUA), UDP-GlcUA varied, E2): 6.9 µM
Ki (UGT1A10 [6]; read-out: Ki′app (Substrate), 8-OH warfarin varied): 136 µM
Ki (UGT1A10 [6]; read-out: Ki′app (Substrate), E2 varied): 43 µM
Ki (UGT1A10 [6]; read-out: Ki′app (UDP-GlcUA), UDP-GlcUA varied, E2): 23 µM
SMILES: CCCCCCCCCC(=O)NC(COC(=O)NS(=O)(=O)OCC1OC(n2ccc(=O)[nH]c2=O)C(O)C1O)Cc1ccccc1 (stereo not drawn) [PP55B]
